Source: ChEMBL document CHEMBL4825772, “Protein Degradation Inducers of Androgen Receptor by Conjugation of Antagonists Androgen Receptor and E3 Ligase Ligand” (ACS Med Chem Lett, 2021)

Target: Protein cereblon/Androgen receptor (Homo sapiens, UniProt P10275+Q96SW2)
Experiment: Protac activity at E3 ubiquitin ligase/androgen receptor in human LNCaP cells assessed as induction of androgen receptor degradation incubated for overnight by sandwich ELISA
Type: cell-based

Protein cereblon/Androgen receptor, sequence (P10275 whole entry): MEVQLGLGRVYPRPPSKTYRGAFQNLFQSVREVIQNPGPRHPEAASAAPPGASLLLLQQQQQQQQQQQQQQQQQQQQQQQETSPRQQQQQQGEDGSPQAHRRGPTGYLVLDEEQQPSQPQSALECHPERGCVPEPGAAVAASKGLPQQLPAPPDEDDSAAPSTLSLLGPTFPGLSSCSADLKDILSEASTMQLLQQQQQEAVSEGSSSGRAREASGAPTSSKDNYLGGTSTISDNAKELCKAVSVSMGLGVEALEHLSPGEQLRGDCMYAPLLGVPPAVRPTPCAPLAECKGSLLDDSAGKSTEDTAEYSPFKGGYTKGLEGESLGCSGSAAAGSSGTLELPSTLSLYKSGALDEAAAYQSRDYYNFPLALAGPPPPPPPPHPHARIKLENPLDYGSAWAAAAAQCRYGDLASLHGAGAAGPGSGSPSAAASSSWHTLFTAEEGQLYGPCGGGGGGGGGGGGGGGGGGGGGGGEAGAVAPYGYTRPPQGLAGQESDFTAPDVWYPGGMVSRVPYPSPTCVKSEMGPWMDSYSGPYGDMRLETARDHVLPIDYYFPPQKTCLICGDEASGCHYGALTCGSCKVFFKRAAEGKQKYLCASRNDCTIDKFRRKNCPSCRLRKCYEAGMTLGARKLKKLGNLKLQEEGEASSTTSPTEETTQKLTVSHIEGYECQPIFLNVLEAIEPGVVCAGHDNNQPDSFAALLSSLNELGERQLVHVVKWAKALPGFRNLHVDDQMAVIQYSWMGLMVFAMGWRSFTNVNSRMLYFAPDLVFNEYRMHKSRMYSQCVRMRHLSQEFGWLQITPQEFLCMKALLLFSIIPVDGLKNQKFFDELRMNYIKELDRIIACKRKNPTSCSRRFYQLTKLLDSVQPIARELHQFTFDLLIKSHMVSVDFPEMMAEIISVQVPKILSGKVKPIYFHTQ
Protein cereblon/Androgen receptor, sequence (Q96SW2 whole entry): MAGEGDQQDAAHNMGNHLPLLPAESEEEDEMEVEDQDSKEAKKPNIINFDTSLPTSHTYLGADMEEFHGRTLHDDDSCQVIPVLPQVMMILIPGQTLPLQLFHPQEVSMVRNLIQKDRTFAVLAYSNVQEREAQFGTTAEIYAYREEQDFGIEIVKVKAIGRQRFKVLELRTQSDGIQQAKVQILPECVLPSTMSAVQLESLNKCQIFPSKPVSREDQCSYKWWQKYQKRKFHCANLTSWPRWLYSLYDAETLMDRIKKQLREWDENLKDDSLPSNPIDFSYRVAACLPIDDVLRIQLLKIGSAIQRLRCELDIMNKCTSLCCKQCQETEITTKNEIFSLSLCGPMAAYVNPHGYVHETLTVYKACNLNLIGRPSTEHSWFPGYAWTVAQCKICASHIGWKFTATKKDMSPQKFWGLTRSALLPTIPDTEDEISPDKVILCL

SMILES	DC50
N#Cc1ccc(N2CCc3c(ncnc3Nc3ccc(C(=O)NCC(=O)N4CCC(CN5CCN(c6cc7c(cc6F)C(=O)N(C6CCC(=O)NC6=O)C7=O)CC5)CC4)c(F)n3)C2)cc1Cl (configuration not stated)	2.8 nM
CN(C1CCN(C(=O)c2ccc(Nc3ncnc4c3CCN(c3ccc(C#N)c(Cl)c3)C4)nc2F)CC1)C1CCN(c2cc3c(cc2F)C(=O)N(C2CCC(=O)NC2=O)C3=O)CC1 (configuration not stated)	16.6 nM
C[C@H]1CN(c2ccc3c(c2)C(=O)N(C2CCC(=O)NC2=O)C3=O)CCN1C[C@H]1CC[C@H](NC(=O)c2ccc(Nc3ncnc4c3CCN(c3ccc(C#N)c(Cl)c3)C4)nc2F)CC1 (some centres not stated)	9.1 nM
CN(C1CCN(C(=O)c2ccc(Nc3ncnc4c3CCN(c3ccc(C#N)c(Cl)c3)C4)nc2F)CC1)C1CCN(c2ccc3c(c2)C(=O)N(C2CCC(=O)NC2=O)C3=O)CC1 (configuration not stated)	4.82 nM
C[C@@H]1CN(c2ccc3c(c2)C(=O)N(C2CCC(=O)NC2=O)C3=O)CCN1C[C@H]1CC[C@H](NC(=O)c2ccc(Nc3ncnc4c3CCN(c3ccc(C#N)c(Cl)c3)C4)nc2F)CC1 (some centres not stated)	5.3 nM
N#Cc1ccc(N2CCc3c(ncnc3Nc3ccc(C(=O)NCCC(=O)N4CCC(CN5CCN(c6cc7c(cc6F)C(=O)N(C6CCC(=O)NC6=O)C7=O)CC5)CC4)c(F)n3)C2)cc1Cl (configuration not stated)	7.7 nM

The remaining compounds from weak to strong by DC50, led by results:

DC50	SMILES
11.6 nM	N#Cc1ccc(N2CCc3c(ncnc3Nc3ccc(C(=O)N4CCC(CN5CCN(c6cc7c(cc6F)C(=O)N(C6CCC(=O)NC6=O)C7=O)CC5)CC4)c(F)n3)C2)cc1Cl (configuration not stated)
9.2 nM	N#Cc1ccc(N2CCc3c(ncnc3Nc3ccc(C(=O)N[C@H]4CC[C@H](CN5CCN(c6cc7c(cc6F)C(=O)N(C6CCC(=O)NC6=O)C7=O)CC5)CC4)c(F)n3)C2)cc1Cl (some centres not stated)
8.5 nM	N#Cc1ccc(N2CCc3c(ncnc3Nc3ccc(C(=O)NC4CCN(CC5CCN(c6ccc7c(c6)C(=O)N(C6CCC(=O)NC6=O)C7=O)CC5)CC4)c(F)n3)C2)cc1Cl (configuration not stated)
4.9 nM	N#Cc1ccc(N2CCc3c(ncnc3Nc3ccc(C(=O)NC4CCN(C5CCN(c6ccc7c(c6)C(=O)N(C6CCC(=O)NC6=O)C7=O)CC5)CC4)c(F)n3)C2)cc1Cl (configuration not stated)
3.2 nM	N#Cc1ccc(N2CCc3c(ncnc3Nc3ccc(C(=O)N4CCC(CN5CCN(c6ccc7c(c6)C(=O)N(C6CCC(=O)NC6=O)C7=O)CC5)CC4)c(F)n3)C2)cc1Cl (configuration not stated)
3 nM	N#Cc1ccc(N2CCc3c(ncnc3Nc3ccc(C(=O)NCCCCCCN4CCN(c5ccc6c(c5)C(=O)N(C5CCC(=O)NC5=O)C6=O)CC4)c(F)n3)C2)cc1Cl (configuration not stated)
